Consider 12 compounds from patent US9533977B2, “Oxazolidinone derivative as CETP inhibitor, its preparation method, and pharmaceutical composition comprising the same” (DONG-A ST CO., LTD., priority 2013, dated 2017).

The target in the assay is T1, CETP (Homo sapiens, UniProt P11597).
T1 construct: from tissue; host or cells: human plasma from healthy men
T1 sequence (P11597 18-493): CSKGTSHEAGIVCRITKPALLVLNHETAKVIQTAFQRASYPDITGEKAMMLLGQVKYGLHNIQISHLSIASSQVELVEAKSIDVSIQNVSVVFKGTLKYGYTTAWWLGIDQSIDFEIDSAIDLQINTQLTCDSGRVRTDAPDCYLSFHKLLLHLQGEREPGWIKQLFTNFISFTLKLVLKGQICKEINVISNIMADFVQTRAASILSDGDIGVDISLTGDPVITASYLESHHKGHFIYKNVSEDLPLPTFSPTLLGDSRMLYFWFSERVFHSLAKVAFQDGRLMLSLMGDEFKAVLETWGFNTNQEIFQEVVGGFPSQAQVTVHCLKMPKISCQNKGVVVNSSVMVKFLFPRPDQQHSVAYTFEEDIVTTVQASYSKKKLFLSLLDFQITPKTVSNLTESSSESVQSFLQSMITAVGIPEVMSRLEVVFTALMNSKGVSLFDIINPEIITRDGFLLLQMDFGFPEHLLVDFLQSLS
Put plainly: Inhibitory activity against CETP in human plasma (Roar CETP activity kit, fluorescence). Format: biochemical. As to conditions: plasma from healthy men diluted 1:10 in assay buffer, 37° C., 3 hrs, fluorescence 465/535 nm; read-out: IC50, Inhibition of CETP Activity in Human Plasma. The essentials:
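Healthy male human plasma, diluted 1:10, incubated 3 hrs at 37° C with donor/acceptor fluorescent substrates and compound (0.01–10000 nM, DMSO). Fluorescence at ex 465/em 535 nm, background-corrected against no-plasma and no-compound wells; IC50 from sigmoidal fit.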

Turning to `CCN(C[C@H]1CC[C@H](CC(=O)O)CC1)c1ncc(C2CCC2)nc1CN1C(=O)OC(c2cc(C(F)(F)F)cc(C(F)(F)F)c2)[C@@H]1C` (stereo partly drawn) [Example 122], the IC50 (as a rule, the concentration at which inhibition is half-maximal) was found to be 0.00468 µM. In the case of “(4S,5S)-5-[3,5-bis(trifluoromethyl)phenyl]-4-methyl-3-({[2-(methyl)(tetrahydro-2H-pyran-4-yl)amino]-5-(trifluoromethyl)pyridin-3-yl}methyl)-oxazolidin-2-one [Example 6]”, the IC50 came to 0.049 µM.

In the case of `CCN(c1ncc(C(F)(F)F)cc1CN1C(=O)O[C@H](c2cc(C(F)(F)F)cc(C(F)(F)F)c2)[C@@H]1C)C1CCC(CC(=O)OC)CC1` (stereo partly drawn) [Example 24, methyl 2-(4-{[3-({(4S,5R)-5-[3,5-bis(trifluoromethyl)phenyl]-4-methyl-2-oxo-oxazolidin-3-yl}methyl)-5-(trifluoromethyl)pyridin-2-yl](ethyl)amino}cyclohexyl)acetate], the IC50 was 0.185 µM. Consider `C[C@H]1[C@@H](c2cc(C(F)(F)F)cc(C(F)(F)F)c2)OC(=O)N1Cc1cc(C(F)(F)F)cnc1N(CCO)C1CCOCC1` [Example 18, (4S,5R)-5-[3,5-Bis(trifluoromethyl)phenyl]-4-methyl-3-({[2-(hydroxyethyl)(tetrahydro-2H-pyran-4-yl)amino]-5-(trifluoromethyl)pyridin-3-yl}methyl)-oxazolidin-2-one], for which the IC50 came to 0.091 µM. For the compound `C[C@H]1[C@@H](c2cc(C(F)(F)F)cc(C(F)(F)F)c2)OC(=O)N1Cc1cc(C(F)(F)F)cnc1N(C)C1CCOC1` (stereo partly drawn) [Example 1, (4S,5R)-5-[3,5-bis(trifluoromethyl)phenyl]-4-methyl-3-[(2-(methyl(tetrahydrofuran-3-yl)amino)-5-(trifluoromethyl)pyridin-3-yl)methyl]-oxazolidin-2-one], the IC50 was 0.112 µM.

With `CCN(c1ncc(-c2ccc(C)o2)cc1CN1C(=O)O[C@H](c2cc(C(F)(F)F)cc(C(F)(F)F)c2)[C@@H]1C)C1CCCCC1` [Example 75, (4S,5R)-5-[3,5-bis(trifluoromethyl)phenyl]-4-methyl-3-({[2-(ethyl)(cyclohexyl)amino]-5-(2-methyl-furan-5-yl)pyridin-3-yl}methyl)-oxazolidin-2-one], the concentration for half-maximal inhibition (IC50) is 0.0311 µM. For the compound `CCN(CC1CCC(CC(=O)O)CC1)c1ncc(-c2ccnn2C)nc1CN1C(=O)OC(c2cc(C(F)(F)F)cc(C(F)(F)F)c2)C1C` [Example 106, trans-4-({[3-({(4S,5S)-5-[3,5-bis(trifluoromethyl)phenyl]-4-methyl-2-oxazolidin-3-yl}methyl)-5-(1-methyl-1H-pyrazol-5-yl)pyrazin-2-yl]{[N-(ethyl)aminomethyl]cyclohexyl)}acetic acid], the concentration for half-maximal inhibition (IC50) was 0.0303 µM.

With `CCN(C[C@H]1CC[C@H](CC(=O)O)CC1)c1ncc(C2CC2)nc1CN1C(=O)OC(c2cc(C(F)(F)F)cc(C(F)(F)F)c2)[C@@H]1C` (stereo partly drawn) [Example 121], the concentration for half-maximal inhibition (IC50) came out at 0.00388 µM. In the case of `CCN(C[C@H]1CC[C@H](CC(=O)O)CC1)c1ncc(-c2cc(C)cs2)nc1CN1C(=O)OC(c2cc(C(F)(F)F)cc(C(F)(F)F)c2)[C@@H]1C` (stereo partly drawn) [Example 110], the IC50 came out at 0.0562 µM. To `CCN(c1ncc(C(F)(F)F)cc1CN1C(=O)O[C@H](c2cc(C(F)(F)F)cc(C(F)(F)F)c2)[C@@H]1C)C1CCN(CC(=O)OC)CC1` [Example 38, methyl 2-(4-{[3-({(4S,5R)-5-[3,5-bis(trifluoromethyl)phenyl]-4-methyl-2-oxo-oxazolidin-3-yl}methyl)-5-(trifluoromethyl)pyridin-2-yl](ethyl)amino}piperidin-1-yl)acetate] belongs 0.0193 µM; to `C[C@H]1C(c2cc(C(F)(F)F)cc(C(F)(F)F)c2)OC(=O)N1Cc1nc(N2CCCC2)cnc1N(C)C[C@H]1CC[C@H](CC(=O)O)CC1` (stereo partly drawn) [Example 127], 0.043 µM; to `Cc1noc(C)c1-c1cnc(N(C)C2CCCCC2)c(CN2C(=O)O[C@H](c3cc(C(F)(F)F)cc(C(F)(F)F)c3)[C@@H]2C)c1` [Example 57, (4S,5R)-5-[3,5-bis(trifluoromethyl)phenyl]-4-methyl-3-({[2-(methyl)(cyclohexyl-4-yl)amino]-5-(3,5-dimethylisoxazol-4-yl)pyridin-3-yl}methyl)-oxazolidin-2-one], 0.0167 µM.
